Results as given in PubChem BioAssay AID248 (DTP/NCI, 2004).
Where “and” joins values, the source holds several entries; their conditions need not be identical. Identical values can stand only once. Inconclusive results and toxic doses are left out. Rule as the data show it: active = T/C of 150% or more; inactive = T/C below 125%.

System: L1210 leukemia ip in BDF1 mice, survival T/C
Assay: NCI In Vivo Anticancer Drug Screen. Data for tumor model L1210 Leukemia (intraperitoneal) in B6D2F1 (BDF1) mice
Settings: higher = longer survival
Procedure, shortened: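 Antitumor effect is assessed in tumor-bearing animals. Survival in the compound arm is compared with a vehicle-dosed control arm and expressed as their quotient.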

Measured: T/C

CCCCN(C)/N=N/c1nc[nH]c1C(N)=O
inactive: endpoint: mean survival time, dose: 4.0 mg/kg/injection, schedule: Q01DX009 (ip), vehicle: other 111 % of control | endpoint: mean survival time, dose: 7.0 mg/kg/injection, schedule: Q01DX009 (ip), vehicle: other 111 % of control | endpoint: mean survival time, dose: 12.25 mg/kg/injection, schedule: Q01DX009 (ip), vehicle: saline with Tween-80 117 % of control | endpoint: mean survival time, dose: 17.6 mg/kg/injection, schedule: Q01DX009 (ip), vehicle: carboxymethylcellulose (CMC) 109 % of control | endpoint: mean survival time, dose: 20.0 mg/kg/injection, schedule: Q01DX Z (ip), vehicle: carboxymethylcellulose (CMC) 124 % of control | endpoint: mean survival time, dose: 26.0 mg/kg/injection, schedule: Q01DX009 (ip), vehicle: carboxymethylcellulose (CMC) 120 % of control | endpoint: mean survival time, dose: 36.7 mg/kg/injection, schedule: Q04DX003 (ip), vehicle: saline with Tween-80 117 % of control | endpoint: mean survival time, dose: 40.0 mg/kg/injection, schedule: Q01DX009 (ip), vehicle: carboxymethylcellulose (CMC) 124 % of control | endpoint: mean survival time, dose: 53.0 mg/kg/injection, schedule: Q01DX001 (ip), vehicle: saline with Tween-80 107 % of control | endpoint: mean survival time, dose: 73.5 mg/kg/injection, schedule: Q04DX003 (ip), vehicle: saline with Tween-80 122 % of control | endpoint: mean survival time, dose: 88.0 mg/kg/injection, schedule: Q01DX001 (ip), vehicle: carboxymethylcellulose (CMC) 103 % of control | endpoint: mean survival time, dose: 88.0 mg/kg/injection, schedule: Q01DX001 (ip), vehicle: other 121 % of control | endpoint: mean survival time, dose: 100.0 mg/kg/injection, schedule: Q01DX001 (ip), vehicle: other 119 % of control | endpoint: mean survival time, dose: 100.0 mg/kg/injection, schedule: Q01DX009 (ip), vehicle: other 90 % of control | endpoint: mean survival time, dose: 106.0 mg/kg/injection, schedule: Q01DX001 (ip), vehicle: saline with Tween-80 119 % of control | endpoint: mean survival time, dose: 120.0 mg/kg/injection, schedule: Q01DX Z (ip), vehicle: carboxymethylcellulose (CMC) 101 % of control | endpoint: mean survival time, dose: 133.0 mg/kg/injection, schedule: Q01DX001 (ip), vehicle: carboxymethylcellulose (CMC) 103 % of control | endpoint: mean survival time, dose: 160.0 mg/kg/injection, schedule: Q01DX009 (ip), vehicle: carboxymethylcellulose (CMC) 98 % of control | endpoint: mean survival time, dose: 200.0 mg/kg/injection, schedule: Q01DX001 (ip), vehicle: carboxymethylcellulose (CMC) 106 % of control | endpoint: mean survival time, dose: 400.0 mg/kg/injection, schedule: Q01DX001 (ip), vehicle: other 122 % of control | endpoint: median survival time, dose: 10.0 mg/kg/injection, schedule: Q01DX009 (ip), vehicle: steriod suspending solution 116 % of control | endpoint: median survival time, dose: 20.0 mg/kg/injection, schedule: Q01DX009 (ip), vehicle: steriod suspending solution 122 % of control | endpoint: median survival time, dose: 160.0 mg/kg/injection, schedule: Q01DX009 (ip), vehicle: steriod suspending solution 100 % of control
active: endpoint: mean survival time, dose: 36.0 mg/kg/injection, schedule: Q01DX009 (ip), vehicle: other 168 % of control | endpoint: mean survival time, dose: 40.0 mg/kg/injection, schedule: Q01DX Z (ip), vehicle: carboxymethylcellulose (CMC) 164 % of control | endpoint: mean survival time, dose: 49.0 mg/kg/injection, schedule: Q01DX009 (ip), vehicle: saline with Tween-80 153 % of control | endpoint: mean survival time, dose: 60.0 mg/kg/injection, schedule: Q01DX009 (ip), vehicle: other 154 % of control | endpoint: mean survival time, dose: 80.0 mg/kg/injection, schedule: Q01DX Z (ip), vehicle: carboxymethylcellulose (CMC) 158 % of control | endpoint: mean survival time, dose: 147.0 mg/kg/injection, schedule: Q04DX003 (ip), vehicle: saline with Tween-80 153 % of control | endpoint: median survival time, dose: 40.0 mg/kg/injection, schedule: Q01DX009 (ip), vehicle: steriod suspending solution 150 % of control and 155 % of control | endpoint: median survival time, dose: 80.0 mg/kg/injection, schedule: Q01DX009 (ip), vehicle: steriod suspending solution 155 % of control and 166 % of control

CCN(CC)CCOc1ccc(/C(=C(\Cl)c2ccccc2)c2ccccc2)cc1
inactive: endpoint: mean survival time, dose: 6.25 mg/kg/injection, schedule: Q04DX002 (ip), vehicle: saline 118 % of control | endpoint: mean survival time, dose: 12.5 mg/kg/injection, schedule: Q04DX002 (ip), vehicle: saline 118 % of control | endpoint: mean survival time, dose: 25.0 mg/kg/injection, schedule: Q04DX002 (ip), vehicle: saline 124 % of control | endpoint: mean survival time, dose: 50.0 mg/kg/injection, schedule: Q04DX002 (ip), vehicle: saline 121 % of control and 124 % of control | endpoint: mean survival time, dose: 100.0 mg/kg/injection, schedule: Q04DX002 (ip), vehicle: saline 96 % of control

CCCCCCCCOc1nccc(N)n1
inactive: endpoint: mean survival time, dose: 75.0 mg/kg/injection, schedule: Q01DX001 (ip), vehicle: saline with Tween-80 105 % of control

CCOC(=O)N1CCC(=C(C#N)c2ccccc2)CC1
inactive: endpoint: mean survival time, dose: 100.0 mg/kg/injection, schedule: Q04DX003 (ip), vehicle: Klucel (hydroxypropylcellulose) (HPC) 92 % of control | endpoint: mean survival time, dose: 200.0 mg/kg/injection, schedule: Q04DX003 (ip), vehicle: Klucel (hydroxypropylcellulose) (HPC) 92 % of control

O=[N+]([O-])c1ccc(OCc2ccc(S(=O)(=O)F)cc2)c(Cl)c1
inactive: endpoint: mean survival time, dose: 100.0 mg/kg/injection, schedule: Q04DX003 (ip), vehicle: other 97 % of control | endpoint: mean survival time, dose: 200.0 mg/kg/injection, schedule: Q04DX003 (ip), vehicle: other 97 % of control | endpoint: mean survival time, dose: 400.0 mg/kg/injection, schedule: Q04DX003 (ip), vehicle: other 92 % of control

Nc1ccc(NC=O)c(Cl)c1
inactive: endpoint: mean survival time, dose: 100.0 mg/kg/injection, schedule: Q04DX003 (ip), vehicle: saline 102 % of control | endpoint: mean survival time, dose: 200.0 mg/kg/injection, schedule: Q04DX003 (ip), vehicle: saline 108 % of control | endpoint: mean survival time, dose: 400.0 mg/kg/injection, schedule: Q04DX003 (ip), vehicle: saline 102 % of control
